Here are results for 14 molecules from US9969716B2, “Indole derivatives as modulators of methyl modifying enzymes, compositions and uses thereof” (Constellation Pharmaceuticals, Inc., priority 2013, dated 2018).

The IC50 is the concentration needed to halve the response being measured. Low readings indicate inhibition by little substance, high ones a need for much substance.

One assay concerns the target Y641N EZH2 (Homo sapiens, UniProt Q15910, Y641N). The experiment in a line: Y641N EZH2 assay (as EZH2 assay, H3K27Me2 oligonucleosomes as substrate). Type of assay: biochemical. The procedure: EZH2 Assay: Assays were carried out by mixing rPRC2 together with biotinylated oligonucleosome substrates in the presence of the radio-labeled enzyme co-factor, S-adenosyl-L-methionine (^3H SAM) (Perkin Elmer) and monitoring the enzymatically mediated transfer of tritiated methyl groups from ^3H SAM to histone lysine residues. The amount of resulting tritiated methyl histone product was measured by first capturing the biotinylated oligonucleosomes in streptavidin (SAV) coated FlashPlates (Perkin Elmer), followed by a wash step to remove un-reacted ^3H SAM, and then counting on a TopCount NXT 384 well plate scintillation counter (Perkin Elmer). The final assay conditions for EZH2 were as follows: 50 mM Tris Buffer pH 8.5, 1 mM DTT, 69 μM Brij-35 detergent, 5.0 mM MgCl2, 0.1 mg/mL BSA, 0.2 μM ^3H SAM, 0.2 μM biotinylated oligonucleosomes, 3.6 μM H3K27me3 peptide and 2 nM EZH2.
A 12.5 μL volume of the HMT enzyme, H3K27me3 peptide and oligonucleosome substrate in assay buffer was added to each well of the assay plate using a Multidrop Combi (ThermoFisher). Compounds were pre-incubated with the enzyme for 20 min, followed by initiation of the methyltransferase reaction by addition of 12.5 μL of ^3H SAM in assay buffer (final volume=25 μL). The final concentrations of compounds ranged from a top default concentration of 80 μM down to 0.16 μM in ten 2-fold dilution steps. Reactions were carried out for 60 minutes and quenched with 20 μL per well of 1.96 mM SAH, 50 mM Tris pH 8.5, 200 mM EDTA. Stopped reactions were transferred to SAV coated Flashplates (Perkin Elmer), incubated for 120 min, washed with a plate washer, and then read on the TopCount NXT (1.0 min/well) to measure the amount of methyl histone product formed during the reaction.

The next assay addresses EZH2 (Homo sapiens, UniProt Q15910). In words: EZH2 assay (rPRC2, 3H SAM methyl transfer to biotinylated oligonucleosomes, FlashPlate). The assay is classed as biochemical. The gist of the method:
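rPRC2 (2 nM EZH2) with 0.2 μM biotinylated oligonucleosomes, 3.6 μM H3K27me3 peptide, 0.2 μM 3H SAM in pH 8.5 Tris buffer; compounds (80 to 0.16 μM) preincubated 20 min, reaction 60 min, SAH/EDTA quench. Methylated product captured on streptavidin FlashPlates, scintillation counted.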

The subject of assay [1] is H3K27me3 mark in HeLa cells. In words: H3K27me3 Alpha Hela Assay (AlphaLISA). The note with it: Homo sapiens, 72 hrs, read-out: EZH2_Cell_H3K27me3_Alpha_HeLa (EC50_K27me3). The assay is classed as cell-based. Put shortly:
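Ten-dose 3-fold series on HeLa cells (1,000/well, 10% DMEM), 72 hrs at 37° C. Lysis, histone extraction, then AlphaLISA with anti-K27me3 acceptor beads, biotinylated anti-H3 C-ter antibody (3 nM final) and streptavidin donor beads (20 μg/mL final); duplicate plate used for viability. DMSO-normalized dose-response curves fitted.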
A general note: In Alpha technology, singlet oxygen from a donor bead excites a nearby acceptor bead.

Chain of Y641N EZH2 (Q15910 whole entry Y641N): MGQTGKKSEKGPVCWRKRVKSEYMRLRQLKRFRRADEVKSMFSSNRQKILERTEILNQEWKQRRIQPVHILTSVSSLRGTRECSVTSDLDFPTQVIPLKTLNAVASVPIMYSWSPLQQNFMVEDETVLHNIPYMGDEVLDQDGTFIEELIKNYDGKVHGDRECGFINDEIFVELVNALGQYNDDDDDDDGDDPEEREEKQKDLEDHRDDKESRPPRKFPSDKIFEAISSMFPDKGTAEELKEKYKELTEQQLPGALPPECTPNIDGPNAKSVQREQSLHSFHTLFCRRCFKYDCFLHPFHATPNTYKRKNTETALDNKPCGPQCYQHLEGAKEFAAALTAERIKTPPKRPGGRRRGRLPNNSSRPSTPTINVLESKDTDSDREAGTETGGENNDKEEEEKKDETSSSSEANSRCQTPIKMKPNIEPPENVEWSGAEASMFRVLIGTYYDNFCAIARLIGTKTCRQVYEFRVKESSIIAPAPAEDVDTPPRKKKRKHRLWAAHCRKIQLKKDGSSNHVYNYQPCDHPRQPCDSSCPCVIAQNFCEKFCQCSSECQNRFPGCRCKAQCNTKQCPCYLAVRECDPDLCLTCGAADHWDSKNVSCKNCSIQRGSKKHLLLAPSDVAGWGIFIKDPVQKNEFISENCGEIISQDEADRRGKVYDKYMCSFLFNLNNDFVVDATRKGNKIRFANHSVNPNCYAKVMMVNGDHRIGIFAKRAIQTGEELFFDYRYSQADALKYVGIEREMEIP
Chain of Y641N EZH2 (O75530 whole entry partner): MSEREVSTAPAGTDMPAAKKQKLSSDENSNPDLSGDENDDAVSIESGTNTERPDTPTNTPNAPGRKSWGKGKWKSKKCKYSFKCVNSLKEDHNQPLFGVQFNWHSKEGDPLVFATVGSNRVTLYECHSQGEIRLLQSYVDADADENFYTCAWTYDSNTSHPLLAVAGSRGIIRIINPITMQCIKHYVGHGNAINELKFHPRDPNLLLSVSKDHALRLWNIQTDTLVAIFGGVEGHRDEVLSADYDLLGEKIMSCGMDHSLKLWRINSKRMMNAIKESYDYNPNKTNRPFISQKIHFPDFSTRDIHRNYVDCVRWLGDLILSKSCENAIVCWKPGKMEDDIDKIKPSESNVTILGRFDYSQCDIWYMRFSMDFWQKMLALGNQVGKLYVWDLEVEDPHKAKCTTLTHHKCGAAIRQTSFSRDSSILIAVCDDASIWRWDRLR
Chain of Y641N EZH2 (Q15022 whole entry partner): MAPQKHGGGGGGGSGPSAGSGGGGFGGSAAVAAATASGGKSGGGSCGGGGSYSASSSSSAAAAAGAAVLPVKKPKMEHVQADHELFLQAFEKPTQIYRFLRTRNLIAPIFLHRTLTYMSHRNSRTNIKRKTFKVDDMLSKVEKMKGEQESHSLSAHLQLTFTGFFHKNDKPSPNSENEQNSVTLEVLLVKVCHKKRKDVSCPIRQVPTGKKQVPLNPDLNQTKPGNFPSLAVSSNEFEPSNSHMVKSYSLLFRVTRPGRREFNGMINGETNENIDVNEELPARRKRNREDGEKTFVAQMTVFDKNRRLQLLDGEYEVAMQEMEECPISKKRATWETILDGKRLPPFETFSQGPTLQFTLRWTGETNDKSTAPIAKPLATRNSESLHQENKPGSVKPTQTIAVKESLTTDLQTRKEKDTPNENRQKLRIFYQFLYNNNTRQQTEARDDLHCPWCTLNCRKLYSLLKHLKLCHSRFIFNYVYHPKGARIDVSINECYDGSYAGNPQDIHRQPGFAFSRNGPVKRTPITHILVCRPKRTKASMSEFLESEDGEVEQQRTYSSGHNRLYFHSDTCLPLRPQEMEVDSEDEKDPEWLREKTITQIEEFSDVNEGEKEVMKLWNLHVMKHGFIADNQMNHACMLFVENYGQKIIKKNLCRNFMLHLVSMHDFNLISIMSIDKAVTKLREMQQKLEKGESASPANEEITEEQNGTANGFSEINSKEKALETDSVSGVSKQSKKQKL
Chain of EZH2 (Q15910 whole entry): as the sequence (Q15910 whole entry Y641N) above, with N641Y counted along it
Chain of EZH2 (O75530 whole entry partner): as the sequence (O75530 whole entry partner) above
Chain of EZH2 (Q15022 whole entry partner): as the sequence (Q15022 whole entry partner) above

`COc1cc(C)[nH]c(=O)c1CNC(=O)c1c(C)n([C@H](C)C2CCN(CC3CC3)CC2)c2ccccc12` [Compound 145]: the IC50 against Y641N EZH2 and against EZH2 was less than 100 nM each time. Further, the EC50 in assay [1] was 400 to 2000 nM.

Turning to `CCS(=O)(=O)N1CCC([C@@H](C)n2c(C)c(C(=O)NCc3c(NC)cc(C)[nH]c3=O)c3ccccc32)CC1` [Compound 123], the IC50 against Y641N EZH2 and at EZH2 was less than 100 nM in each case. Besides, the EC50 in assay [1] was less than 400 nM.

With `COc1cc(C)[nH]c(=O)c1CNC(=O)c1c(C)n([C@H](C)C2CCN(CC3(C(F)(F)F)CC3)CC2)c2ccccc12` [Compound 102], the concentration for half-maximal inhibition (IC50) on Y641N EZH2 and against EZH2 was less than 100 nM throughout. Besides, the EC50 in assay [1] is less than 400 nM.

Regarding `Cc1cc(C)c(CNC(=O)c2c(C)n([C@H](C)C3CCN(S(=O)(=O)C4CN(C)C4)CC3)c3ccccc23)c(=O)[nH]1` [Compound 147], the IC50 against Y641N EZH2 and at EZH2 was less than 100 nM throughout. For the same molecule, the EC50 in assay [1] lay in the range of 400 to 2000 nM.

With `Cc1cc(C)c(CNC(=O)c2c(C)n([C@H](C)C3CCN(C(=O)N4CCN(C)CC4)CC3)c3ccccc23)c(=O)[nH]1` [Compound 162], the half-inhibitory concentration (IC50) on Y641N EZH2 and at EZH2 was less than 100 nM in each case. Besides, the EC50 in assay [1] was in the range of 400 to 2000 nM.

As to `COc1cc(C)[nH]c(=O)c1CNC(=O)c1c(C)n([C@H](C)C2CCN(c3ccc(F)cn3)CC2)c2ccccc12` [Compound 131], the half-inhibitory concentration (IC50) on Y641N EZH2 and against EZH2 was less than 100 nM throughout. Also, the EC50 in assay [1] is less than 400 nM.

As to `COc1cc(C)[nH]c(=O)c1CNC(=O)c1c(C)n([C@H](C)C2CCN(c3ncc(Br)cn3)CC2)c2ccccc12` [Compound 124, (R)-1-(1-(1-(5-bromopyrimidin-2-yl)piperidin-4-yl)ethyl)-N-((4-methoxy-6-methyl-2-oxo-1,2-dihydropyridin-3-yl)methyl)-2-methyl-1H-indole-3-carboxamide], the IC50 on Y641N EZH2 and at EZH2 was less than 100 nM throughout. Besides, in assay [1], the EC50 is less than 400 nM.

`COc1cc(C)[nH]c(=O)c1CNC(=O)c1c(C)n([C@H](C)C2CCN(C[C@H](O)C(F)(F)F)CC2)c2ccccc12` [Compound 156]: the IC50 against Y641N EZH2 and at EZH2 was less than 100 nM throughout. Also, the EC50 in assay [1] was in the range of 400 to 2000 nM.

`COc1cc(C)[nH]c(=O)c1CNC(=O)c1c(C)n([C@H](C)C2CCN(C(=O)N(C)C)CC2)c2ccccc12` [Compound 158]: the IC50 against Y641N EZH2 and at EZH2 was less than 100 nM in each case. The EC50 in assay [1] lay within 400 to 2000 nM.

For the molecule `COc1cc(C)[nH]c(=O)c1CNC(=O)c1c(C)n([C@H](C)C2CCN(C(=O)C(C)(C)C)CC2)c2ccccc12` [Compound 129], the half-maximal inhibitory concentration (IC50) at Y641N EZH2 and against EZH2 was less than 100 nM in each case. Further, the EC50 in assay [1] was less than 400 nM.

On to `COc1cc(C)[nH]c(=O)c1CNC(=O)c1c(C)n([C@H](C)C2CCN(CC3(F)CC3)CC2)c2ccccc12` [Compound 119], for which the 50% inhibitory concentration (IC50) at Y641N EZH2 and against EZH2 was less than 100 nM each time. Moreover, the EC50 in assay [1] was less than 400 nM.

Consider `Cc1cc(OC(F)F)c(CNC(=O)c2c(C)n([C@H](C)C3CCN(CCC(F)(F)F)CC3)c3ccccc23)c(=O)[nH]1` [Compound 143], for which the IC50 at Y641N EZH2 and against EZH2 was less than 100 nM throughout. For the same molecule, the EC50 in assay [1] is less than 400 nM.

Turning to `Cc1cc(Cl)c(CNC(=O)c2c(C)n([C@H](C)C3CCN(CC(C)(C)O)CC3)c3ccccc23)c(=O)[nH]1` [Compound 142], the IC50 against Y641N EZH2 and against EZH2 was less than 100 nM each time. In addition, in assay [1], the EC50 is less than 400 nM.

On to `Cc1cc(Cl)c(CNC(=O)c2c(C)n([C@H](C)C3CCN(CCF)CC3)c3ccccc23)c(=O)[nH]1` [Compound 126], for which the IC50 against Y641N EZH2 and on EZH2 was less than 100 nM in each case. The EC50 in assay [1] was less than 400 nM.
